# Measurements published in patent US10617697B2, “Extracts of edible fungi enriched in vitamin D and compostions thereof and their use in the treatment of immune-related disorders” (GAVISH-GALILEE BIO APPLICATIONS LTD, priority 2015, dated 2020).
# Test system: immune-mediated hepatitis harboring mice
# Assay: ConA hepatitis in mice, serum liver enzymes after oral pre-treatment
# Assay type: in vivo, C57BL/6 mice
# Conditions: for ALT serum levels: serum 16 hours after ConA
# Method: Male C57BL/6 mice (11-12 weeks old) were obtained from Harlan Laboratories (Jerusalem, Israel) and maintained in the Animal Core of the Hadassah-Hebrew University Medical School. Mice were administered standard laboratory chow and water ad libitum and kept in a 12 hour light/dark cycle. Animal experiments were carried out according to the guidelines of the Hebrew University-Hadassah Institutional Committee for Care and Use of Laboratory Animals and with the committee's approval.
# Concanavalin A (ConA, MP Biomedicals, USA) was dissolved in 50 mM Tris pH 7, 150 mM NaCl, 4 mM CaCl2 and was injected into the tail vein at a dose of 500 μg/mouse (15 mg/kg) in the first experiment, and 400 μg/mouse in the second experiment. Mice were sacrificed 16 hours following ConA injection. Blood and liver tissue were collected for further analysis
# Two consecutive experiments were conducted. In the first study, 4 groups of mice were studied (n=5-6 mice/group). Mice in control group were treated 2 hours before ConA injection with DDW (di distilled water). The first treated group received vitamin D oral supplement (1 IU of vitamin D in saline) twice daily for 3 days prior to Concanavalin A-induced immune liver damage. The second treated group was treated orally with crude freeze-dried biomass derived from Lentinula edodes (LE) edible mushrooms (7.5 mg of mushrooms) at the same timing and frequency, while the third treated group was treated with vitamin D enriched LE (7.5 mg of freeze-dried mushrooms containing 1.125 IU of vitamin D). In a subsequent study, four groups of mice (n=5-7 mice/group) were treated by the same protocol detailed above, but the frequency of the oral treatment was increased from two to three times daily.
# Serum was obtained from individual mice after sacrifice. The serum aspartate aminotransferase (AST) and alanine aminotransferase (ALT) levels were determined with an automatic analyzer.
smiles,measurement,setting,value
"C=C1CC[C@H](O)C/C1=C/C=C1\CCC[C@]2(C)[C@@H]([C@H](C)/C=C/[C@H](C)C(C)C)CC[C@@H]12 [vitamin D, ergocalciferol]",proportion of severe liver injury (defined as ALT>2611 U/L),"first experiment, oral twice daily for 3 days before ConA",60%
same,ALT serum levels,"first experiment, oral twice daily for 3 days before ConA 500 μg/mouse",2802 U/L
same,proportion of severe liver injury (defined as ALT >2000 U/L),"second experiment, oral three times daily for 3 days before ConA",100%
same,proportion of severe liver injury by AST (defined as AST>2000 U/L),"second experiment, oral three times daily for 3 days before ConA, data not shown",100%
same,ALT serum levels,"second study, oral three times daily for 3 days before ConA 400 μg/mouse",4040 U/L
